Values after ≈ are worked out from the molar mass of the structure shown. Active and inactive are the calls of the source. No cut-off for these calls is given here.
Tests used:
Pseudomonas aeruginosa = experiment: Antibacterial activity against wild-type Pseudomonas aeruginosa PAO1 assessed as inhibition of bacterial growth incubated for 24 hrs; assay type: functional; details: read-out: MIC100
[1] = Lipophilicity, logD of compound at pH 7.4; assay type: physicochemical; details: buffer
[2] = Aqueous solubility of compound at pH 7.4; assay type: physicochemical
[3] = Chemical stability of compound in glutathione; assay type: physicochemical
[4] = Chemical stability of compound in benzylamine; assay type: physicochemical
[5] = Chemical stability of compound in mercaptoethanol; assay type: physicochemical
Cytochrome P450 2B6 = target: T1, Cytochrome P450 2B6 (Homo sapiens, UniProt P20813); experiment: Induction of CYP2B6 (unknown origin); assay type: ADME
T1 sequence (P20813 whole entry): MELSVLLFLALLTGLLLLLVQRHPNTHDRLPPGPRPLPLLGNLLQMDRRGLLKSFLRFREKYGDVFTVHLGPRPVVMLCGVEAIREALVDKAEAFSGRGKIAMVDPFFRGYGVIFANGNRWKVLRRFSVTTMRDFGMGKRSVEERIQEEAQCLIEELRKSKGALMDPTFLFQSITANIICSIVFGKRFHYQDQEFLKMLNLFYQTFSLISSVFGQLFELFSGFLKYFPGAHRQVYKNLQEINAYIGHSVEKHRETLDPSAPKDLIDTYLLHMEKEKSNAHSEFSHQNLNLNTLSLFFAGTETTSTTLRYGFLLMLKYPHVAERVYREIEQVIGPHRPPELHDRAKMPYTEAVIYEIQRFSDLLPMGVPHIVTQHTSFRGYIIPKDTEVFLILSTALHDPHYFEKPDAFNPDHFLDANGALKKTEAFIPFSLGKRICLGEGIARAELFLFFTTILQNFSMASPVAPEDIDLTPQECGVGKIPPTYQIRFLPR

[6] = AUClast in Swiss mouse plasma at 10 mg/kg, iv administered as single bolus dose and measured upto 24 hrs by LC-MS/MS analysis; assay type: ADME, organism-based
[7] = AUClast in Swiss mouse lung at 10 mg/kg, iv administered as single bolus dose and measured upto 24 hrs by LC-MS/MS analysis; assay type: ADME, organism-based
Citrobacter freundii = experiment: Antibacterial activity against Citrobacter freundii ATCC 8090 assessed as inhibition of bacterial growth incubated for 18 hrs; assay type: functional; details: read-out: MIC100
Enterobacter cloacae = experiment: Antibacterial activity against Enterobacter cloacae ATCC 23355 assessed as inhibition of bacterial growth incubated for 18 hrs; assay type: functional; details: read-out: MIC100
Escherichia coli [8] = experiment: Antibacterial activity against Escherichia coli Swiss 7 harboring mcr-1 gene assessed as inhibition of bacterial growth incubated for 18 hrs; assay type: functional; details: read-out: MIC100
Staphylococcus aureus = experiment: Antibacterial activity against wild type Staphylococcus aureus USA300 assessed as inhibition of bacterial growth incubated for 18 hrs; assay type: functional; details: read-out: MIC100
Klebsiella pneumoniae [9] = experiment: Antibacterial activity against Klebsiella pneumoniae panel (100 strains) assessed as inhibition of bacterial growth; assay type: functional
Escherichia coli [10] = experiment: Antibacterial activity against Escherichia coli ATCC 25922 assessed as inhibition of bacterial growth incubated for 18 hrs in presence of 2 mM MgCl2; assay type: functional, organism-based
Escherichia coli [11] = experiment: Antibacterial activity against Escherichia coli ATCC 25922 assessed as inhibition of bacterial growth incubated for 18 hrs in presence of 25 mM bicarbonate; assay type: functional, organism-based
Klebsiella pneumoniae [12] = experiment: Antibacterial activity against Klebsiella pneumoniae ATCC 13883 assessed as inhibition of bacterial growth incubated for 18 hrs in presence of 5 mM KCl; assay type: functional, organism-based
Klebsiella pneumoniae [13] = experiment: Antibacterial activity against Klebsiella pneumoniae ATCC 13883 assessed as inhibition of bacterial growth incubated for 18 hrs in presence of 2 mM MgCl2; assay type: functional, organism-based
[14] = Drug localization in cytoplasm of Escherichia coli ATCC 25922 at 10 uM incubated for 10 mins by LC-MS/MS analysis; assay type: ADME, subcellular
Lipopolysaccharide (LPS) = experiment: Binding affinity to Escherichia coli O55:B5 LPS assessed as dissociation constant by ITC analysis; assay type: subcellular
Escherichia coli [15] = experiment: Antibacterial activity against Escherichia coli ATCC 25922 infected in cyclophosphamide immunosuppressed mouse thigh infection model at 30 to 90 mg/kg, iv administered every 2 hrs starting from 1 hr post infection and measured 25 hrs post infection; assay type: functional, organism-based; details: dose 30-90 mg/kg, time 24.0 hrs
Klebsiella pneumoniae [16] = experiment: Antibacterial activity against Klebsiella pneumoniae ATCC 43816 infected in mouse urinary tract infection model assessed as reduction in bacterial burden in bladder at <10 mg/kg, iv administered every 4 hrs and measured after 26 hrs; assay type: functional, organism-based

For `CC[C@H](C)[C@@H](NC(=O)[C@@H](NC(=O)[C@H](CCC(=O)O)NC(=O)[C@H](Cc1ccccc1)NC(=O)[C@@H](CCN)NC(=O)[C@H](CCN)NC(=O)[C@H](CO)NC(=O)[C@@H](Cc1c[nH]c2ccccc12)NC(=O)[C@@H](CO)NC(=O)CNC(=O)[C@@H](CCN)NC(=O)[C@H](NC(=O)[C@H](C)N)C(C)C)C(C)C)C(=O)N[C@@H](C)C(=O)O`, which MIC (Pseudomonas aeruginosa) is on record?
The MIC was 64 µg/mL (≈ 43.7 µM).

And the logD [1]?
The logD was 1.36.

What about the solubility [2] of the same compound?
Its solubility is greater than 1000 µg/mL.

What about the Stability [3] of the same compound?
The Stability was “Stable”.

And the Stability [4]?
Its Stability is “Stable”.

And the Stability [5]?
Its Stability is “Stable”.

What about the Activity (Cytochrome P450 2B6) of the same compound?
Its Activity is “Not Active”.

What about the AUC(0-t) at 24 h [6] of the same compound?
Its AUC(0-t) at 24 h is 82500 ng·h/mL.

What about the AUC(0-t) at 24 h [7] of the same compound?
Its AUC(0-t) at 24 h is 12100 ng·h/mL.

What about the MIC (Citrobacter freundii) of the same compound?
Its MIC is 4 µg/mL (≈ 2.73 µM).

And the MIC (Enterobacter cloacae)?
Its MIC is 2 µg/mL (≈ 1.36 µM).

And the MIC (Escherichia coli [8])?
The MIC was 16 µg/mL (≈ 10.9 µM).

And the MIC (Staphylococcus aureus)?
The MIC was greater than 32 µg/mL.

What about the MIC50 (Klebsiella pneumoniae [9]) of the same compound?
Its MIC50 is 8 µg/mL (≈ 5.46 µM).

What about the MIC90 (Klebsiella pneumoniae [9]) of the same compound?
Its MIC90 is 32 µg/mL (≈ 21.8 µM).

What about the Activity (Escherichia coli [10]) of the same compound?
Its Activity is “Active”.

What about the Activity (Escherichia coli [11]) of the same compound?
The Activity was “Active”.

What about the Activity (Klebsiella pneumoniae [12]) of the same compound?
The Activity was “Active”.

What about the Activity (Klebsiella pneumoniae [13]) of the same compound?
The Activity was “Active”.

What about the Drug uptake [14] of the same compound?
Its Drug uptake is “Active”.

And the Kd (Lipopolysaccharide (LPS))?
The Kd was 35.7 µM.

And the Activity (Escherichia coli [15])?
Its Activity is “Active”.

And the Activity (Klebsiella pneumoniae [16])?
The Activity was “Active”.

— ChEMBL document CHEMBL5518181, “Studies of antibacterial activity (in vitro and in vivo) and mode of action for des-acyl tridecaptins (DATs)” (Eur J Med Chem, 2024)
